Measurements reported in ChEMBL document CHEMBL3885881, “DrugMatrix”.

Species on record: Rattus norvegicus
Assay: DrugMatrix - Regimen: Daily Repeat
Assay type: toxicity, organism-based, Sprague-Dawley
Set-up: regimen Daily Repeat, gender Male, age 6-8 weeks
Settings: in vivo, po, route oral GAVAGE, vehicle .5 % CMC; for ABSOLUTE BASOPHIL / ABSOLUTE EOSINOPHIL / ABSOLUTE LYMPHOCYTE / ABSOLUTE MONOCYTE / ABSOLUTE SEGMENTED NEUTROPHIL / BASOPHIL / EOSINOPHIL / ERYTHROCYTE COUNT / HEMATOCRIT / HEMOGLOBIN / LEUKOCYTE COUNT / LYMPHOCYTE / MEAN CORPUSCULAR HEMOGLOBIN / MEAN CORPUSCULAR HEMOGLOBIN CONCENTRATION / MEAN CORPUSCULAR VOLUME / MONOCYTE / NEUTROPHIL / NUCLEATED RED BLOOD CELLS / PLATELET COUNT: tissue Blood; for ALANINE AMINOTRANSFERASE / ALBUMIN / ALKALINE PHOSPHATASE / ASPARTATE AMINOTRANSFERASE / BLOOD UREA NITROGEN / CARBON DIOXIDE / CHLORIDE / CHOLESTEROL / CREATINE PHOSPHOKINASE / CREATININE / GLUCOSE / LACTATE DEHYDROGENASE / LIPASE / PHOSPHORUS / POTASSIUM / SODIUM / TOTAL BILIRUBIN / TOTAL PROTEIN / URIC ACID: tissue Plasma
[1] = 0 mg/kg, 72 h, dose level Control, time 3 day
[2] = 0 mg/kg, 120 h, dose level Control, time 5 day
[3] = 200 mg/kg, 72 h, dose level Low, time 3 day

Compound: CCn1cc(C(=O)O)c(=O)c2cc(F)c(N3CCNCC3)cc21 [NORFLOXACIN]
- ABSOLUTE BASOPHIL [1]: 0 CELLS/uL
- ABSOLUTE EOSINOPHIL [1]: 0 CELLS/uL
- ABSOLUTE LYMPHOCYTE [1]: 12269.67 CELLS/uL
- ABSOLUTE MONOCYTE [1]: 160.33 CELLS/uL
- ABSOLUTE SEGMENTED NEUTROPHIL [1]: 970 CELLS/uL
- BASOPHIL [1]: 0%
- EOSINOPHIL [1]: 0%
- ERYTHROCYTE COUNT [1]: 5.76 x10E6/uL
- HEMATOCRIT [1]: 36.57%
- HEMOGLOBIN [1]: 14.22 G/DL
- LEUKOCYTE COUNT [1]: 13.4 x10E3/uL
- LYMPHOCYTE [1]: 91.67%
- MEAN CORPUSCULAR HEMOGLOBIN [1]: 24.67 pg
- MEAN CORPUSCULAR HEMOGLOBIN CONCENTRATION [1]: 38.85 G/DL
- MEAN CORPUSCULAR VOLUME [1]: 63.52 fL
- MONOCYTE [1]: 1.17%
- NEUTROPHIL [1]: 7.17%
- NUCLEATED RED BLOOD CELLS [1]: 0.33 /100WBC
- PLATELET COUNT [1]: 1250.83 x10E3/uL
- ALANINE AMINOTRANSFERASE [1]: 49.17 u/L
- ALBUMIN [1]: 4.33 G/DL
- ALKALINE PHOSPHATASE [1]: 378.5 u/L
- ASPARTATE AMINOTRANSFERASE [1]: 82.17 u/L
- BLOOD UREA NITROGEN [1]: 15 mg/dL
- CARBON DIOXIDE [1]: 34.33 mmol/L
- CHLORIDE [1]: 99.17 MEQ/L
- CHOLESTEROL [1]: 71.17 mg/dL
- CREATINE PHOSPHOKINASE [1]: 258.67 u/L
- CREATININE [1]: 0.18 mg/dL
- GLUCOSE [1]: 142.67 mg/dL
- LACTATE DEHYDROGENASE [1]: 154.33 u/L
- LIPASE [1]: 9 u/L
- PHOSPHORUS [1]: 11.67 mg/dL
- POTASSIUM [1]: 7.13 MEQ/L
- SODIUM [1]: 142.22 MEQ/L
- TOTAL BILIRUBIN [1]: 0.18 mg/dL
- TOTAL PROTEIN [1]: 5.77 G/DL
- URIC ACID [1]: 1.55 mg/dL
- ABSOLUTE BASOPHIL [2]: 0 CELLS/uL
- ABSOLUTE EOSINOPHIL [2]: 23.33 CELLS/uL
- ABSOLUTE LYMPHOCYTE [2]: 14943.67 CELLS/uL
- ABSOLUTE MONOCYTE [2]: 32 CELLS/uL
- ABSOLUTE SEGMENTED NEUTROPHIL [2]: 1084.33 CELLS/uL
- BASOPHIL [2]: 0%
- EOSINOPHIL [2]: 0.17%
- ERYTHROCYTE COUNT [2]: 5.71 x10E6/uL
- HEMATOCRIT [2]: 35.28%
- HEMOGLOBIN [2]: 14.27 G/DL
- LEUKOCYTE COUNT [2]: 16.08 x10E3/uL
- LYMPHOCYTE [2]: 93%
- MEAN CORPUSCULAR HEMOGLOBIN [2]: 25.02 pg
- MEAN CORPUSCULAR HEMOGLOBIN CONCENTRATION [2]: 40.43 G/DL
- MEAN CORPUSCULAR VOLUME [2]: 61.82 fL
- MONOCYTE [2]: 0.17%
- NEUTROPHIL [2]: 6.67%
- NUCLEATED RED BLOOD CELLS [2]: 0.33 /100WBC
- PLATELET COUNT [2]: 1274 x10E3/uL
- ALANINE AMINOTRANSFERASE [2]: 54.17 u/L
- ALBUMIN [2]: 4.22 G/DL
- ALKALINE PHOSPHATASE [2]: 373.17 u/L
- ASPARTATE AMINOTRANSFERASE [2]: 81.83 u/L
- BLOOD UREA NITROGEN [2]: 16.67 mg/dL
- CARBON DIOXIDE [2]: 30.33 mmol/L
- CHLORIDE [2]: 99 MEQ/L
- CHOLESTEROL [2]: 71 mg/dL
- CREATINE PHOSPHOKINASE [2]: 273.5 u/L
- CREATININE [2]: 0.22 mg/dL
- GLUCOSE [2]: 141.83 mg/dL
- LACTATE DEHYDROGENASE [2]: 153.67 u/L
- LIPASE [2]: 10.33 u/L
- PHOSPHORUS [2]: 11.38 mg/dL
- POTASSIUM [2]: 7.08 MEQ/L
- SODIUM [2]: 142.75 MEQ/L
- TOTAL BILIRUBIN [2]: 0.18 mg/dL
- TOTAL PROTEIN [2]: 6.1 G/DL
- URIC ACID [2]: 1.67 mg/dL
- ABSOLUTE BASOPHIL [3]: 0 CELLS/uL
- ABSOLUTE EOSINOPHIL [3]: 0 CELLS/uL
- ABSOLUTE LYMPHOCYTE [3]: 11949 CELLS/uL
- ABSOLUTE MONOCYTE [3]: 111 CELLS/uL
- ABSOLUTE SEGMENTED NEUTROPHIL [3]: 1006.67 CELLS/uL
- BASOPHIL [3]: 0%
- EOSINOPHIL [3]: 0%
- ERYTHROCYTE COUNT [3]: 5.6 x10E6/uL
- HEMATOCRIT [3]: 36.17%
- HEMOGLOBIN [3]: 14.13 G/DL
- LEUKOCYTE COUNT [3]: 13.07 x10E3/uL
- LYMPHOCYTE [3]: 91.67%
- MEAN CORPUSCULAR HEMOGLOBIN [3]: 25.27 pg
- MEAN CORPUSCULAR HEMOGLOBIN CONCENTRATION [3]: 39.07 G/DL
- MEAN CORPUSCULAR VOLUME [3]: 64.63 fL
- MONOCYTE [3]: 1%
- NEUTROPHIL [3]: 7.33%
- NUCLEATED RED BLOOD CELLS [3]: 0 /100WBC
- PLATELET COUNT [3]: 1470.67 x10E3/uL
- ALANINE AMINOTRANSFERASE [3]: 63.33 u/L
- ALBUMIN [3]: 4.33 G/DL
- ALKALINE PHOSPHATASE [3]: 468 u/L
- ASPARTATE AMINOTRANSFERASE [3]: 89 u/L
- BLOOD UREA NITROGEN [3]: 13.67 mg/dL
- CARBON DIOXIDE [3]: 28 mmol/L
- CHLORIDE [3]: 102 MEQ/L
- CHOLESTEROL [3]: 54.33 mg/dL
- CREATINE PHOSPHOKINASE [3]: 294 u/L
- CREATININE [3]: 0.26 mg/dL
- GLUCOSE [3]: 137.33 mg/dL
- LACTATE DEHYDROGENASE [3]: 260.67 u/L
- LIPASE [3]: 10 u/L
- PHOSPHORUS [3]: 13.5 mg/dL
- POTASSIUM [3]: 6.81 MEQ/L
- SODIUM [3]: 146.4 MEQ/L
- TOTAL BILIRUBIN [3]: 0.23 mg/dL
- TOTAL PROTEIN [3]: 6 G/DL
- URIC ACID [3]: 2.13 mg/dL
